Measured values from patent US20230285317A1, “DILUENTS, STANDARDIZATION AGENTS AND VISCOSITY CONTROL FOR CANNABINOIDS FORMULATIONS AND METHODS THEREOF” (Scientific Holdings, LLC, priority 2022, published 2023).

Key:
[1] = Long-term solubility and oil stability of cannabinoids in CBC at room temperature; assay type: physicochemical; settings: solid cannabinoid in CBC
Description: In an example embodiment, the solubility of a number of solid cannabinoid isolates in concentrations of 10-80 percent by mass were evaluated in CBC, a viscous oil at room-temperature. Solubility is assessed at 25 degrees (Celsius), after heating to 35 degrees (Celsius), after heating to 70 degrees (Celsius), and after heating to 100 degrees (Celsius). The solubility of cannabinoids with CBC is then observed at room temperature at various time points after formulation to determine long-term solubility and oil stability.
The samples were then heated at an appropriate temperature for 15 total minutes in a water bath and then if any of the CBD remained solid, the vial would be heated for 15 minutes at the next temperature level. A glass thermometer was used to observe and record the temperature. All eight vials corresponding to the eight concentrations of CBD in CBC became a homogeneous mass upon 6-8 minutes heating at 70 degrees (Celsius).
The samples were then heated at an appropriate temperature for 15 total minutes in a water bath and then if any of the CBG remained solid the vial would be heated for 15 minutes at the next temperature level. A glass thermometer was used to observe and record the temperature. […] The viscosity of the solution containing 50% CBG (Vial 13) and 60% CBG (Vial 14) increased upon standing for 35 to 40 minutes at room temperature.
The samples were then heated at an appropriate temperature for 15 total minutes in a water bath and then if any of the CBDA remained solid the vial would be heated for 15 minutes at the next temperature level. A glass thermometer was used to observe and record the temperature. […] But no solids were evident after 4 minutes at 100 degrees (Celsius). […] Vials 20 through 24, containing […] CBDA respectively in 10 weight percent increments, were homogenous liquids after 7 minutes at 100° C. The samples containing 30% CBDA to 60% CBDA became very viscous but remained liquid after 20 minutes at room temperature.
After day 1, the samples containing 10% to 80% CBD appeared more viscous but remained homogeneous oils. […]

[2] = Solubility of CBG in bisabolol; assay type: physicochemical
Description: Roughly 10% of the original amount of CBG seemed to remain crystalline in the sample containing 30% CBG. Approximately 20% the original amount of CBG remained crystalline in the sample containing 40% CBG. Approximately 30% of the original amount of CBG remained solid in the sample containing 50% CBG and approximately 40% of the original mass of CBG remained solid in the solution containing 60% CBG.

Compound: C=C(C)[C@@H]1CCC(C)=C[C@H]1c1c(O)cc(CCCCC)cc1O [CBD, cannabidiol, reference compound]
- concentration up to which CBC gives a flowable and stable oil [1]: ≤ 80%

Compound: CCCCCc1cc(O)c(C/C=C(\C)CCC=C(C)C)c(O)c1 [CBG, cannabigerol]
- concentration up to which CBC gives a flowable and stable oil [1]: ≤ 40%
- concentration of CBG in a flowable and stable oil made with bisabolol [2]: greater than 60%

Compound: C=C(C)[C@@H]1CCC(C)=C[C@H]1c1c(O)cc(CCCCC)c(C(=O)O)c1O [CBDA, cannabidiolic acid]
- concentration up to which CBC gives a flowable and stable oil [1]: ≤ 20%
